The values below come from patent US9763992B2, “Treatment of noise induced hearing loss” (Father Flanagan's Boys' Home, priority 2014, dated 2017).

One assay has as its system TGF-β. Put plainly: qRT-PCR cytokine expression after noise exposure: TGF-β. The format is in vivo, mouse. The conditions noted are these: GA-treated mice, spleen tissues. As to the method: (§1) To determine if GA affects cytokine expression, groups of mice received GA as described above, and cytokine expression was evaluated via RT-PCR.
(§2) Using RT-PCR, the effects of GA on cytokine expression in the cochlea, specifically those mediators associated with pro- or anti-inflammatory activity, was established.

In another assay the test system is IL-17. Nature of the assay: qRT-PCR cytokine expression after noise exposure: IL-17. The format is in vivo, mouse. As to conditions: GA-treated mice, 10 days following noise exposure (Group 1), FIG. 7. As for the experimental part:
as §1, §2

A further assay has as its system interferon-gamma. Nature of the assay: qRT-PCR cytokine expression after noise exposure: interferon-gamma. The assay is classed as in vivo, mouse. The conditions noted are these: GA-treated mice, 10 days following noise exposure (Group 1), spleen tissues, FIG. 6. As for the experimental part:
(§3) To determine if GA affects cytokine expression, groups of mice received GA as described above, and cytokine expression was evaluated via RT-PCR. […]

The subject of a further assay is IL-4. Nature of the assay: qRT-PCR cytokine expression after noise exposure: IL-4. The format is in vivo, mouse. As to conditions: GA-treated mice, 10 days following noise exposure (Group 1), spleen tissues, FIG. 6. As to the method: as §3
Assay [1] concerns noise-induced hearing loss (NIHL) in CBA mice. Nature of the assay: ABR threshold recovery after traumatizing noise exposure in mice. The assay is classed as in vivo, mouse. As to the method:
(§4) To determine if the glatiramer acetate (GA) prevents or reduces hearing loss in mice following exposure to traumatizing noise, following determination of baseline acoustic thresholds (i.e., pre-noise exposure thresholds), hearing sensitivity and input-output relationships was assessed during the post-noise exposure period using auditory evoked brainstem responses (ABRs) and distortion product otoacoustic emissions (DPOAEs); DPOAEs were studied using the same protocol as in ABR-based studies to separate findings associated with neural and sensory outcomes. Responses to tone burst stimuli was acquired immediately following noise exposure, daily during the early post-exposure period, and intermittently thereafter for six (6) months to generally assess the long-term outcome of exposure to traumatizing noise in CBA mice. Morphological correlates of final treatment outcomes, including sensory and support cell (cytocochleograms), synapses between hair cells and spiral ganglion dendrites, and SGN survival estimates, was made at the end of the acute phase (2 months following noise exposure) or at 6 months to assess long-term outcomes.
The traumatizing noise used in CBA mouse studies was an octave band of white noise centered on 11.3 kHz and was presented at 109 dB SPL for 30 min. Because of well-documented differences in the abilities of males and females to mount inflammatory responses, both males and females were included in this investigation.
In mice, GA (100 mg/kg) was administered following two treatment strategies. In Group 1, GA was administered in sequential doses one month and one week prior to noise exposure (the “protection” approach), with supplementary doses on a daily basis for the first 4 days following noise exposure and again on the 7th and 14th post-exposure days in mice, to determine if GA can prevent permanent hearing loss associated with traumatizing noise. In Group 2, GA was administered only during the post-noise exposure period in an effort to determine if GA can rescue hearing following acute trauma. In a subset of animals, GA was administered prior to noise exposure and then daily for the first ten post-exposure days. Complete Freund's adjuvant will be used to deliver the first dose of the agent to determine if GA actions might be potentiated (boosted) when delivered in an emulsified form in a separate group of mice.
An example of findings associated with this experimental design is shown in FIG. 2, in which families of ABR threshold-frequency curves (audiograms) generated by tracking sensitivity according to the “protection” protocol reviewed above in a GA-treated animal (right panel) and a saline-treated control (left panel) that were exposed to noise simultaneously are shown.
With this example, to determine if treatment with GA alone reduces the amount of temporary and permanent hearing loss and/or accelerates the rate of recovery from temporary threshold shift (TTS), groups of mice received GA or saline and were evaluated as described above.

Assay [2] shares this test system. Put plainly: DPOAE input-output curves (outer hair cell function) after noise exposure in mice. The format is in vivo. The conditions noted are these: one GA-treated mouse relative to saline-treated; 14 days following noise exposure; f2=11.3 kHz; FIG. 4. As to the method:
as §4
The traumatizing noise used in CBA mouse studies was an octave band of white noise centered on 11.3 kHz and was presented at 109 dB SPL for 30 min. […]

Another assay has as its system IL-2. Nature of the assay: qRT-PCR cytokine expression after noise exposure: IL-2. The assay is classed as in vivo, mouse. As to conditions: GA-treated mice, 10 days following noise exposure (Group 1), FIG. 7. As to the method: as §1, §2
A further assay relates to TNF-alpha. Put plainly: qRT-PCR cytokine expression after noise exposure: TNF-alpha. The assay is classed as in vivo, mouse. The conditions noted are these: GA-treated mice, 10 days following noise exposure (Group 1), FIG. 7. As to the method: as §1, §2

In the case of Glatiramer acetate [GA], the TGF-β expression result in the assay with TGF-β is on record as “up-regulation”. Moreover, in the assay with IL-17, the IL-17 expression result is given as “down-regulated”. Besides, the “Interferon-gamma expression, reduction re controls” value in the assay on interferon-gamma was 66%. Also, the “Expression of anti-inflammatory cytokine IL-4, fold greater than controls” value with IL-4 is listed as 2.6 fold. Also, in assay [1] (GA cohort, control animals approximately 17 dB, FIG. 5), the “Total extent of recovery following exposure (cohort)” value is around 25 dB. For the same substance, the “Threshold recovery during the first 10 days following exposure relative to saline-treated controls and GA-treated mice below criterion” value in assay [1] (GA-treated mice with at least 3.4-fold IL-4 increase, stimulus frequencies within the noise band (8.0, 11.3 and 16.0 kHz), FIG. 9) was “greater”. The “Overall threshold recovery from NIHL relative to saline-treated controls and GA-treated mice below criterion” value in assay [1] (GA-treated mice with at least 3.4-fold increase in IL-4 expression (criterion), FIG. 8) is given as “significantly greater”. The “Recovery with GA treatment alone compared with saline controls” value in assay [1] (P<0.05) was “significantly enhanced”. In assay [1] (one GA-treated mouse, protection protocol, GA 100 mg/kg, frequencies at and immediately above noise centre frequency 11.3 kHz, first 14 days after exposure, FIG. 2, 3), the “Recovery from NIHL (ABR threshold-frequency curves)” value was “nearly complete”. Besides, in assay [2], the “Recovery of outer hair cell (OHC) function, DPOAE input-output curves” value was “nearly complete recovery”. In addition, the IL-2 expression entry in the assay with IL-2 was “down-regulated”. Further, the TNF-α expression result in the assay with TNF-alpha is recorded as “down-regulated”.
